From ChEMBL document CHEMBL4393657, “Tetrazole hybrids and their antifungal activities” (2019) come the findings set out here.

What all share (format): functional
In test [1] the test system is Pichia kudriavzevii. As to the kind of experiment: Antifungal activity against Candida krusei assessed as reduction in fungal cell growth incubated for 48 hrs by broth microdilution method. Background: In broth dilution the organism is exposed to a series of concentrations in liquid medium.
The subject of test [2] is Candida parapsilosis. As to the kind of experiment: Antifungal activity against Candida parapsilosis ATCC 22019 assessed as reduction in fungal cell growth incubated for 48 hrs by broth microdilution method. The following applies: Lodderomyces parapsilosis, ATCC 22019, 48 h.
Test [3] has as its system Cryptococcus neoformans. As to the kind of experiment: Antifungal activity against Cryptococcus neoformans LA314 assessed as reduction in fungal cell growth incubated for 48 hrs by broth microdilution method. The following applies: LA314, 48 h.
Test [4] relates to Nakaseomyces glabratus. Description: Antifungal activity against Candida glabrata assessed as reduction in fungal cell growth incubated for 48 hrs by broth microdilution method.
Test [5] relates to Aspergillus niger. Description: Antifungal activity against Aspergillus niger assessed as reduction in fungal cell growth incubated for 72 hrs by broth microdilution method.
Test [6] has as its system Candida albicans. Description: Antifungal activity against Candida albicans assessed as reduction in fungal cell growth incubated for 48 hrs by broth microdilution method.
Test [7] deals with Candida tropicalis. As to the kind of experiment: Antifungal activity against Candida tropicalis assessed as reduction in fungal cell growth incubated for 48 hrs by broth microdilution method.

Converted amounts (≈) assume the structure as drawn.

Broadly, the MIC is the least concentration at which growth counts as inhibited. Regarding `OC(Cn1cncn1)(Cn1nnnc1CCN1CCN(C(c2ccccc2)c2ccccc2)CC1)c1ccc(F)cc1F` (stereo not given), the MIC in test [1], in test [2], in test [3], in test [4], in test [5] and in test [6] was 0.5 to 16 µg/mL (≈ 0.854 to 27.3 µM) throughout. In addition, in test [7], the minimum inhibitory concentration (MIC) lay within 0.5 to 16 µg/mL (≈ 0.854 to 27.3 µM).
For `CC(n1nnc(CCN2CCN(c3cccc(Cl)c3)CC2)n1)C(O)(Cn1cncn1)c1ccc(F)cc1F` (stereo not given), the MIC in test [1], in test [2], in test [3], in test [4], in test [5] and in test [6] was 1 to 16 µg/mL (≈ 1.84 to 29.4 µM) each time. Also, in test [7], the MIC was in the range of 1 to 16 µg/mL (≈ 1.84 to 29.4 µM).
With `OC(Cn1cncn1)(Cn1nnnc1CCN1CCN(c2ccccn2)CC1)c1ccc(F)cc1F` (stereo not given), the MIC in test [1], in test [2], in test [3], in test [4], in test [5] and in test [6] was 0.5 to 16 µg/mL (≈ 1.01 to 32.2 µM) throughout. Besides, the MIC in test [7] was 0.5 to 16 µg/mL (≈ 1.01 to 32.2 µM).
For `OC(Cn1cncn1)(Cn1nnc(CCN2CCN(c3ccc(Cl)cc3)CC2)n1)c1ccc(F)cc1F` (stereo not given), the MIC in test [1], in test [2], in test [3], in test [4], in test [5] and in test [6] was 1 to 16 µg/mL (≈ 1.89 to 30.2 µM) each time. Also, the MIC in test [7] was in the range of 1 to 16 µg/mL (≈ 1.89 to 30.2 µM).
Regarding `CC(n1nnnc1CCN1CCN(c2ccc([N+](=O)[O-])cc2)CC1)C(O)(Cn1cncn1)c1ccc(F)cc1F` (stereo not given), the minimum inhibitory concentration (MIC) in test [1], in test [2], in test [3], in test [4], in test [5] and in test [6] was 0.5 to 16 µg/mL (≈ 0.902 to 28.9 µM) in each case. For the same compound, the minimal inhibitory concentration (MIC) in test [7] was 0.5 to 16 µg/mL (≈ 0.902 to 28.9 µM).
As to `C[C@H](n1nnc(CCN2CCN(c3cccc(C(F)(F)F)c3)CC2)n1)[C@](O)(Cn1cncn1)c1ccc(F)cc1F`, the MIC in test [1], in test [2], in test [3], in test [4], in test [5] and in test [6] was 0.25 to 16 µg/mL (≈ 0.433 to 27.7 µM) each time. The minimal inhibitory concentration (MIC) in test [7] is 0.25 to 16 µg/mL (≈ 0.433 to 27.7 µM).
Turning to `CC(n1nnnc1CCN1CCN(c2cccc(C(F)(F)F)c2)CC1)C(O)(Cn1cncn1)c1ccc(F)cc1F` (stereo not given), the MIC in test [1], in test [2], in test [3], in test [4], in test [5] and in test [6] was 0.5 to 16 µg/mL (≈ 0.866 to 27.7 µM) in each case. Besides, the minimum inhibitory concentration (MIC) in test [7] lay in the range of 0.5 to 16 µg/mL (≈ 0.866 to 27.7 µM).
`OC(Cn1cncn1)(Cn1nnnc1CCN1CCN(c2c(Cl)cccc2Cl)CC1)c1ccc(F)cc1F` (stereo not given): the minimal inhibitory concentration (MIC) in test [1], in test [2], in test [3], in test [4], in test [5] and in test [6] was 0.5 to 16 µg/mL (≈ 0.886 to 28.3 µM) each time. The MIC in test [7] is 0.5 to 16 µg/mL (≈ 0.886 to 28.3 µM).
As to `OC(Cn1cncn1)(Cn1nnc(CCN2CCN(c3c(Cl)cccc3Cl)CC2)n1)c1ccc(F)cc1F` (stereo not given), the MIC in test [1], in test [2], in test [3], in test [4], in test [5] and in test [6] was 1 to 16 µg/mL (≈ 1.77 to 28.3 µM) throughout. Further, the MIC in test [7] is 1 to 16 µg/mL (≈ 1.77 to 28.3 µM).
On to `CCCCOc1ccccc1N1CCN(CCc2nnnn2[C@@H](C)[C@](O)(Cn2cncn2)c2ccc(F)cc2F)CC1`, for which the MIC in test [1], in test [2], in test [3], in test [4], in test [5] and in test [6] was 0.12 to 16 µg/mL (≈ 0.206 to 27.5 µM) each time. In addition, the minimum inhibitory concentration (MIC) in test [7] lay within 0.12 to 16 µg/mL (≈ 0.206 to 27.5 µM).
Turning to `CC(n1nnc(CCN2CCN(c3ccc(Cl)cc3)CC2)n1)C(O)(Cn1cncn1)c1ccc(F)cc1F` (stereo not given), the MIC in test [1], in test [2], in test [3], in test [4], in test [5] and in test [6] was 1 to 16 µg/mL (≈ 1.84 to 29.4 µM) in each case. Besides, the MIC in test [7] was in the range of 1 to 16 µg/mL (≈ 1.84 to 29.4 µM).
For the compound `OC(Cn1cncn1)(Cn1nnc(CCN2CCN(c3cccc(C(F)(F)F)c3)CC2)n1)c1ccc(F)cc1F` (stereo not given), the minimal inhibitory concentration (MIC) in test [1], in test [2], in test [3], in test [4], in test [5] and in test [6] was 1 to 16 µg/mL (≈ 1.77 to 28.4 µM) in each case. Moreover, the MIC in test [7] was in the range of 1 to 16 µg/mL (≈ 1.77 to 28.4 µM).
Turning to `COc1ccc(N2CCN(CCc3nnnn3CC(O)(Cn3cncn3)c3ccc(F)cc3F)CC2)cc1` (stereo not given), the MIC in test [1], in test [2], in test [3], in test [4], in test [5] and in test [6] was 0.5 to 16 µg/mL (≈ 0.951 to 30.4 µM) each time. Moreover, in test [7], the minimal inhibitory concentration (MIC) was in the range of 0.5 to 16 µg/mL (≈ 0.951 to 30.4 µM).
Consider `OC(Cn1cncn1)(Cn1nnnc1CCN1CCN(c2ccccc2)CC1)c1ccc(F)cc1F` (stereo not given), for which the MIC in test [1], in test [2], in test [3], in test [4], in test [5] and in test [6] was 0.5 to 16 µg/mL (≈ 1.01 to 32.3 µM) each time. Further, in test [7], the MIC lay in the range of 0.5 to 16 µg/mL (≈ 1.01 to 32.3 µM).
`OC(Cn1cncn1)(Cn1nnnc1CCN1CCN(c2ccc(Cc3ccccc3)cc2)CC1)c1ccc(F)cc1F` (stereo not given): the MIC in test [1], in test [2], in test [3], in test [4], in test [5] and in test [6] was 0.5 to 16 µg/mL (≈ 0.854 to 27.3 µM) each time. Moreover, the MIC in test [7] was 0.5 to 16 µg/mL (≈ 0.854 to 27.3 µM).
Consider `C[C@H](n1nnnc1CCN1CCN(c2ccc(F)cc2)CC1)[C@](O)(Cn1cncn1)c1ccc(F)cc1F`, for which the minimal inhibitory concentration (MIC) in test [1], in test [2], in test [3], in test [4], in test [5] and in test [6] was 0.12 to 16 µg/mL (≈ 0.227 to 30.3 µM) in each case. Moreover, the MIC in test [7] was 0.12 to 16 µg/mL (≈ 0.227 to 30.3 µM).
Consider `CC(n1nnnc1CCN1CCN(c2ccccn2)CC1)C(O)(Cn1cncn1)c1ccc(F)cc1F` (stereo not given), for which the minimum inhibitory concentration (MIC) in test [1], in test [2], in test [3], in test [4], in test [5] and in test [6] was 0.5 to 16 µg/mL (≈ 0.979 to 31.3 µM) each time. Besides, the MIC in test [7] was 0.5 to 16 µg/mL (≈ 0.979 to 31.3 µM).
As for `C[C@H](n1nnc(CCN2CCN(c3c(Cl)cccc3Cl)CC2)n1)[C@](O)(Cn1cncn1)c1ccc(F)cc1F`, the MIC in test [1], in test [2], in test [3], in test [4], in test [5] and in test [6] was 0.25 to 16 µg/mL (≈ 0.432 to 27.7 µM) in each case. Further, the minimum inhibitory concentration (MIC) in test [7] was in the range of 0.25 to 16 µg/mL (≈ 0.432 to 27.7 µM).
`CCCCOc1ccccc1N1CCN(CCc2nnnn2CC(O)(Cn2cncn2)c2ccc(F)cc2F)CC1` (stereo not given): the MIC in test [1], in test [2], in test [3], in test [4], in test [5] and in test [6] was 0.5 to 16 µg/mL (≈ 0.881 to 28.2 µM) each time. Also, in test [7], the minimal inhibitory concentration (MIC) fell in the range of 0.5 to 16 µg/mL (≈ 0.881 to 28.2 µM).
In the case of `C[C@H](n1nnnc1CCN1CCN(c2ccc([N+](=O)[O-])cc2)CC1)[C@](O)(Cn1cncn1)c1ccc(F)cc1F`, the MIC in test [1], in test [2], in test [3], in test [4], in test [5] and in test [6] was 0.12 to 16 µg/mL (≈ 0.216 to 28.9 µM) throughout. Besides, the MIC in test [7] lay in the range of 0.12 to 16 µg/mL (≈ 0.216 to 28.9 µM).
